In PubChem BioAssay (NCI) one finds GI50 and TGI data, which are given here for 25 molecules.

What all share (assay): DTP human tumour cell line panel, 48 h
Test [1] deals with RPMI-8226 leukemia.
For test [2], the system named is OVCAR-8 ovarian.
For test [3], the system named is HOP-92 NSCLC.
The test system of test [4] is HT29 colon.
The subject of test [5] is SNB-75 CNS.
Test [6] deals with HOP-62 NSCLC.
In test [7] the test system is MDA-MB-435.
Test [8] deals with SW-620 colon.
The subject of test [9] is K-562 leukemia.
The subject of test [10] is HCC-2998 colon.

The structures appear in SMILES notation.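 Growth conditions: 96-well plates. Treatment: test compound, 48 hours, 5 concentrations. Analysis: linear interpolation between bracketing concentrations; unreached endpoints set to highest concentration. Here, GI50 denotes the concentration required for 50% inhibition of growth. TGI denotes the concentration required for complete inhibition of growth.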

Usually GI50 stands for the concentration that inhibits growth by half. The term TGI denotes the concentration giving total growth inhibition. A higher TGI goes with lower sensitivity of the cells. Consider `COc1cccc2c1C(=O)c1c(O)c3c(c(O)c1C2=O)C[C@@](O)(/C(C)=N/NC(=O)c1ccc(Cl)cc1)C[C@@H]3OC1CC(N)C(O)C(C)O1` (stereo partly drawn), for which the GI50 in test [1] was 0.216 µM; in [2] it was 0.268 µM; in test [3], 0.192 µM; in test [4], 0.232 µM; in [5] it was 0.102 µM; in [6] it was 0.215 µM. The TGI was determined as 1.47 µM in [1]; 3.02 µM in test [2]; 0.751 µM in test [3]; 1.41 µM in test [4]; 0.552 µM in test [5]; 1.94 µM in [6].
On to `COC(=O)c1cc2c(s1)-c1nccc3c1c(nc1ccccc13)C2=O`, for which the GI50 was 17.7 µM in test [7]; 19.1 µM in test [2]; 61.7 µM in [8]; above 100 µM in test [4]; above 100 µM in [9]; 65.4 µM in test [6]. The concentration for total growth inhibition (TGI) in [7] is 32 µM; in test [2] it was 48.4 µM; in [8], above 100 µM; in test [4], above 100 µM; in test [9] it was above 100 µM; in [6] it was above 100 µM.
For the molecule `COc1ccc(-c2cc(/C=C/C(=O)c3ccc(OC)c(OC)c3)[nH]n2)cc1`, the GI50 in test [7] is 1.84 µM; in [1], 0.32 µM; in test [10] it was 2.02 µM; in [2], 2.16 µM; in test [8], 1.35 µM; in test [4], 1.55 µM. The GI50 in test [9] is 1.28 µM; in [5] it was 1.55 µM; in test [6], 2.35 µM. Besides, the TGI in test [7] was 3.88 µM; in test [1], 1.33 µM; in test [10] it was 3.97 µM; in test [2], 10.4 µM; in test [8] it was 3.59 µM; in [4], 3.45 µM. Moreover, the concentration for total growth inhibition (TGI) in [9] is 10.7 µM; in test [5] it was 3.84 µM; in test [6] it was 6.17 µM.
Regarding `[N-]=[N+]=N/C1=C/CCCCC(=O)C1`, the TGI in test [1], in [10], in test [2], in [8], in test [3] and in test [4] was above 100 µM throughout. The TGI in test [9], in test [5] and in test [6] was above 100 µM each time.
Consider `C=CCN1CCC23c4c5ccc(O)c4OC2C(=NN=C2CCC4(O)C6Cc7ccc(O)c8c7C4(CCN6CC=C)C2O8)CCC3(O)C1C5` (stereo not drawn), for which the concentration for total growth inhibition (TGI) was above 100 µM in test [1]; 43.2 µM in test [10]; 61.7 µM in test [2]; 48.9 µM in test [8]; 39.9 µM in test [3]; 37.6 µM in test [4]. For the same molecule, the TGI in test [9] came to 78.7 µM; in test [5], 34.2 µM; in test [6], 44 µM.
Turning to `Cc1ccc(S(=O)OCc2c(C)c(C)c(COS(=O)c3ccc(C)cc3)c(C)c2C)cc1` (stereo not drawn), the TGI in test [1], in [10], in test [2], in test [8], in [3] and in test [4] was above 100 µM in each case. Moreover, the TGI in test [9], in test [5] and in test [6] was above 100 µM in each case.
For `CCN(CC)CCSc1c2ccccc2nc2c(OC)ccc(OC)c12`, the concentration for total growth inhibition (TGI) in test [10] is above 36 µM; in test [2] it was 12 µM; in test [3] it was 7.57 µM; in test [4], 23.1 µM; in test [9], above 24.5 µM; in test [5] it was above 70 µM. This molecule also yielded a TGI in [6] above 70.2 µM.
Consider `Cn1cc(-c2csc(-c3c[nH]c4ccc(Br)cc34)n2)c2cnccc21`, for which the GI50 in test [1] is 2.13 µM; in test [8] it was 1.81 µM; in test [3] it was 2.98 µM; in test [9], 0.345 µM; in test [6], 3.17 µM. For the same molecule, the concentration for total growth inhibition (TGI) in test [1] amounted to 4.8 µM; in test [8], 3.46 µM; in test [3], 8.37 µM; in test [9], 1.28 µM; in test [6], 13.9 µM.
Take `O=c1[nH]c2ccc(O)cc2o1`: the TGI in test [10], in [2], in [8], in test [4], in [9] and in [5] was above 100 µM each time. The TGI in test [6] was above 100 µM.
`Cc1nc2cc(Nc3nc(Nc4ccc(F)cc4)nc(-c4cccs4)n3)ccc2n1Cc1ccccc1`: the GI50 in test [7] is 3.85 µM; in test [1], 2.07 µM; in test [2], 3.54 µM; in [8], 4.02 µM; in [4], 2.12 µM; in test [9] it was 3.07 µM. The GI50 in [5] is 2.94 µM; in test [6] it was 8.45 µM. In addition, the TGI in [7] was determined as 35.2 µM; in [1], 5.91 µM; in [2], 19 µM; in test [8] it was 38.8 µM; in [4], 4.44 µM; in [9], 20.6 µM. The TGI in test [5] and in test [6] was above 100 µM each time.
For the molecule `C[Si](C)(C)/C(Br)=C\CCN1C(=O)CCC1=O`, the total growth inhibition concentration (TGI) in [10], in [2], in test [8], in [3], in test [4] and in test [9] was above 100 µM each time. Moreover, the concentration for total growth inhibition (TGI) in test [5] and in test [6] was above 100 µM in each case.
As to `O=C1CCC(=O)c2c1c(O)c1ccncc1c2O`, the TGI in test [1] was found to be 55.5 µM; in [10], 29.6 µM; in [2], 25.3 µM; in test [8] it was 35.8 µM; in [3] it was 38.1 µM; in test [4], 21.3 µM. For the same molecule, the values for the TGI in test [9], in test [5] and in test [6] were 44 µM, 34.7 µM and 69 µM, respectively.
Turning to `C[Si](C)(C)/C(I)=C/CO`, the TGI was 40.7 µM in [1]; 86.5 µM in test [2]; 47.8 µM in test [8]; 54.5 µM in test [3]; 44.5 µM in test [4]; 41.4 µM in test [9]. This molecule also showed a total growth inhibition concentration (TGI) in test [5] above 100 µM.
Consider `CC(C)(C)[Si](C)(C)OC1C(=O)C[C@H]2CCCC[C@@H]12` (stereo partly drawn), for which the total growth inhibition concentration (TGI) in test [1], in test [10], in [2], in test [8], in test [3] and in [4] was above 100 µM throughout. In addition, the TGI in test [9], in test [5] and in [6] was above 100 µM in each case.
For the molecule `CN(C)CCSc1cc(-c2ccccc2)c2ccccc2n1`, the concentration for total growth inhibition (TGI) in test [7] was 22.1 µM; in test [1] it was above 100 µM; in test [2], 58.5 µM; in test [8] it was 23.2 µM; in [4], 35.8 µM; in [9], 23.5 µM. This molecule registered a TGI in test [6] of 22.9 µM.
As for `COC(=O)C1=C(C(=O)OC)C2=S(SC3=C2CCCC3)S1` (stereo not drawn), the total growth inhibition concentration (TGI) in test [1] was 30.1 µM; in test [10], above 100 µM; in [2], 39.8 µM; in [8], 13 µM; in test [3], 40.3 µM; in test [4], 87.8 µM. The figures for the total growth inhibition concentration (TGI) in [9], in test [5] and in test [6] were 25.8 µM, 62.7 µM and above 100 µM, respectively.
On to `O=C1c2cc3c(cc2-c2c1c1cc(Cl)c(Cl)cc1c(=O)n2C[C@H](O)CO)OCO3`, for which the concentration for 50% growth inhibition (GI50) was 0.0111 µM in test [7]; below 0.01 µM in test [1]; 0.0451 µM in test [10]; below 0.01 µM in [2]; below 0.01 µM in [8]; below 0.01 µM in [9]. Further, the GI50 in test [5] and in [6] was below 0.01 µM throughout. The TGI was 0.168 µM in test [7]; 0.188 µM in [1]; 3.29 µM in test [10]; 1.16 µM in test [2]; 2.08 µM in test [8]; above 100 µM in [9]. Further, the TGI worked out at 0.0786 µM in test [5] and 0.0326 µM in test [6].
In the case of `CN(C)CCNC(=O)c1cccc2c(Nc3ccc(S(=O)(=O)N=C(N)N)cc3)c3ccccc3nc12`, the TGI in test [2] is 69.1 µM; in test [8], above 100 µM; in test [4], above 100 µM; in [9], 77.4 µM; in test [5] it was 43.8 µM; in test [6], 39.2 µM.
For the molecule `O=[N+]([O-])c1ccc(-c2cnc3ccccn23)cc1`, the total growth inhibition concentration (TGI) in test [1] was above 100 µM; in test [2], above 100 µM; in test [8], above 100 µM; in test [4] it was above 100 µM; in [9] it was above 100 µM; in test [5] it was 92 µM. Besides, the concentration for total growth inhibition (TGI) in [6] was above 100 µM.
`Cc1cc(N(CCCNc2ccnc3cc(Cl)ccc23)Cc2ccc3c(c2)OCO3)nc(N2CCOCC2)n1`: the GI50 in test [7] was 0.37 µM; in test [1], 0.33 µM; in [10], 0.329 µM; in [2], 0.312 µM; in test [8], 0.306 µM; in test [4], 0.247 µM. Further, the 50% growth inhibitory concentration (GI50) in test [9] is 0.328 µM; in test [5], 0.204 µM. The TGI in test [7] is 1.78 µM; in test [1] it was 2.15 µM; in test [10] it was 13.1 µM; in test [2] it was 25.6 µM; in [8], 38.2 µM; in [4], 0.695 µM. The total growth inhibition concentration (TGI) was found to be 10 µM in test [9] and 0.626 µM in test [5].
As for `Cn1cnnc1Sc1c([N+](=O)[O-])ncn1C`, the total growth inhibition concentration (TGI) is above 100 µM in [1]; above 100 µM in test [10]; above 100 µM in test [2]; above 100 µM in test [8]; 91.2 µM in test [3]; above 100 µM in test [4]. Also, the TGI in test [9], in test [5] and in [6] was above 100 µM in each case.
As to `C[C@]12CCC(=O)C=C1CC[C@@H]1C2CC[C@]2(C)Nc3[nH]ncc3CC12` (stereo partly drawn), the TGI in [1], in [10], in [2], in test [8], in [4] and in test [9] was above 100 µM each time. For the same molecule, the TGI in [5] and in [6] was above 100 µM each time.
Turning to `COc1cc(/C=C\c2cc(OC)c(OC)c(OC)c2)cc(N/C=C\C(=O)c2cc(OC)c(OC)c(OC)c2)c1OC`, the GI50 is 3.04 µM in [1]; 8.92 µM in test [10]; 4.7 µM in [2]; 4.12 µM in [8]; 1.14 µM in test [3]; 3.21 µM in [4]. The GI50 in [9] is 3.38 µM; in test [5], 1.39 µM; in test [6] it was 2.46 µM. The total growth inhibition concentration (TGI) in test [1] was above 100 µM; in [10], above 100 µM; in test [2], above 100 µM; in test [8], above 100 µM; in test [3], 6.56 µM; in [4], 14.8 µM. In addition, the TGI in [9] was above 100 µM; in test [5], 4.81 µM; in test [6], above 100 µM.
As to `CS/C(=C(\S)c1ccccc1)c1ccccc1`, the concentration for total growth inhibition (TGI) in [1], in test [10], in [2], in test [8], in [3] and in [4] was above 100 µM throughout. In addition, the TGI in test [9], in [5] and in test [6] was above 100 µM in each case.
Turning to `CSc1ccccc1C#C/C=C\C#Cc1ccccc1N`, the GI50 in test [7] was 0.982 µM; in test [1], 2.72 µM; in test [2], 35.8 µM; in test [8] it was 3.72 µM; in [4], 25.1 µM; in test [9], 5.08 µM. Besides, the GI50 was 36.3 µM in [5] and 5.39 µM in test [6]. The total growth inhibition concentration (TGI) in test [7] is 2.49 µM; in test [1], 12.7 µM; in [2] it was above 100 µM; in test [8] it was 14.8 µM; in [4] it was 54.8 µM; in test [9], above 100 µM. The concentration for total growth inhibition (TGI) in [5] came to 81 µM; in [6] it was 26.3 µM.
